# In PubChem BioAssay AID330 (DTP/NCI, 2004):
# Where “and” joins values, the source holds several entries; their conditions need not be identical. Identical values can stand only once. Toxic doses and inconclusive results are not listed.
# System: P388 leukemia ip, CD2F1 mice, survival T/C
# Assay: NCI In Vivo Anticancer Drug Screen. Data for tumor model P388 Leukemia (intraperitoneal) in CD2F1 (CDF1) mice
# Settings: endpoint: median survival time, higher = longer survival
# Summary of the method: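 Mice carrying the transplanted tumor received test compound or vehicle. Survival was recorded in each group, and the value is the treated-group measurement divided by that of the vehicle-treated control group.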
# [1] = dose: 12.5 mg/kg/injection, schedule: Q01DX009 (ip), vehicle: saline with Tween-80
# [2] = dose: 25.0 mg/kg/injection, schedule: Q01DX009 (ip), vehicle: saline with Tween-80
# [3] = dose: 50.0 mg/kg/injection, schedule: Q01DX009 (ip), vehicle: saline with Tween-80
# [4] = dose: 100.0 mg/kg/injection, schedule: Q04DX002 (ip), vehicle: saline with Tween-80
# [5] = dose: 200.0 mg/kg/injection, schedule: Q01DX009 (ip), vehicle: other
# [6] = dose: 100.0 mg/kg/injection, schedule: Q01DX009 (ip), vehicle: saline with Tween-80
# [7] = dose: 200.0 mg/kg/injection, schedule: Q01DX009 (ip), vehicle: saline with Tween-80
# [8] = dose: 100.0 mg/kg/injection, schedule: Q01DX001 (ip), vehicle: saline with Tween-80
# [9] = dose: 60.0 mg/kg/injection, schedule: Q01DX005 (ip), vehicle: saline with Tween-80
# [10] = dose: 120.0 mg/kg/injection, schedule: Q01DX005 (ip), vehicle: saline with Tween-80
# [11] = dose: 240.0 mg/kg/injection, schedule: Q01DX005 (ip), vehicle: saline with Tween-80
# [12] = dose: 100.0 mg/kg/injection, schedule: Q04DX003 (ip), vehicle: saline
# [13] = dose: 50.0 mg/kg/injection, schedule: Q01DX005 (ip), vehicle: Klucel (hydroxypropylcellulose) (HPC)
# [14] = dose: 100.0 mg/kg/injection, schedule: Q01DX005 (ip), vehicle: Klucel (hydroxypropylcellulose) (HPC)
# [15] = dose: 200.0 mg/kg/injection, schedule: Q01DX005 (ip), vehicle: Klucel (hydroxypropylcellulose) (HPC)
smiles,measurement,setting,value
CCCC(CCC)NCC(O)c1cc(-c2ccc(C(F)(F)F)cc2)nc(C(F)(F)F)c1 (centres undefined),T/C,[1],102 % of control
same,T/C,[2],107 % of control
same,T/C,[3],100 % of control and 91 % of control
COC1=CC(C)(C)C(=O)S1,T/C,"dose: 25.0 mg/kg/injection, schedule: Q04DX002 (ip), vehicle: saline with Tween-80",100 % of control
same,T/C,"dose: 50.0 mg/kg/injection, schedule: Q04DX002 (ip), vehicle: saline with Tween-80",96 % of control
same,T/C,[4],100 % of control
O=C(c1cc2c(cc1[N+](=O)[O-])OCO2)N1CCc2ccccc21,T/C,"dose: 3.13 mg/kg/injection, schedule: Q01DX009 (ip), vehicle: saline with Tween-80",99 % of control
same,T/C,"dose: 6.25 mg/kg/injection, schedule: Q01DX009 (ip), vehicle: saline with Tween-80",99 % of control
same,T/C,[1],96 % of control
same,T/C,"dose: 25.0 mg/kg/injection, schedule: Q01DX009 (ip), vehicle: other",99 % of control
same,T/C,[2],94 % of control
same,T/C,"dose: 50.0 mg/kg/injection, schedule: Q01DX009 (ip), vehicle: other",100 % of control
same,T/C,"dose: 100.0 mg/kg/injection, schedule: Q01DX009 (ip), vehicle: other",107 % of control
same,T/C,[5],89 % of control
COC(=O)C1NC(C)(C(=O)OC)C2C(=O)NC(=O)C12 (centres undefined),T/C,"dose: 100.0 mg/kg/injection, schedule: Q04DX002 (ip), vehicle: Klucel (hydroxypropylcellulose) (HPC)",95 % of control
same,T/C,"dose: 200.0 mg/kg/injection, schedule: Q04DX002 (ip), vehicle: Klucel (hydroxypropylcellulose) (HPC)",93 % of control
same,T/C,"dose: 400.0 mg/kg/injection, schedule: Q04DX002 (ip), vehicle: Klucel (hydroxypropylcellulose) (HPC)",88 % of control
Cc1cc(Cl)c2ccccc2c1N,T/C,"dose: 100.0 mg/kg/injection, schedule: Q04DX003 (ip), vehicle: saline with Tween-80",100 % of control
same,T/C,[5],105 % of control
same,T/C,"dose: 200.0 mg/kg/injection, schedule: Q04DX003 (ip), vehicle: saline with Tween-80",95 % of control
same,T/C,"dose: 400.0 mg/kg/injection, schedule: Q01DX009 (ip), vehicle: other",90 % of control
same,T/C,"dose: 400.0 mg/kg/injection, schedule: Q04DX003 (ip), vehicle: saline with Tween-80",100 % of control
CC(C)c1ccc(C(CC(=O)C(C)(C)C)C(C(=O)O)c2ccc([N+](=O)[O-])cc2)cc1 (centres undefined),T/C,"dose: 50.0 mg/kg/injection, schedule: Q01DX009 (ip), vehicle: Klucel (hydroxypropylcellulose) (HPC)",109 % of control
same,T/C,"dose: 100.0 mg/kg/injection, schedule: Q01DX009 (ip), vehicle: Klucel (hydroxypropylcellulose) (HPC)",108 % of control
COc1cc([N+](=O)[O-])ccc1NC(=O)Nc1nccs1,T/C,[3],93 % of control
same,T/C,[6],101 % of control
same,T/C,[7],99 % of control
Nc1cc(-c2ccc(Br)cc2)nn1-c1nnc(-c2ccccc2)c(-c2ccccc2)n1,T/C,"dose: 50.0 mg/kg/injection, schedule: Q01DX005 (ip), vehicle: saline with Tween-80",101 % of control
same,T/C,"dose: 100.0 mg/kg/injection, schedule: Q01DX005 (ip), vehicle: saline with Tween-80",93 % of control
same,T/C,"dose: 200.0 mg/kg/injection, schedule: Q01DX005 (ip), vehicle: saline with Tween-80",92 % of control
CCOc1ccc(-c2nc3ccc(-c4nc5ccc(N6CCN(C)CC6)cc5[nH]4)cc3[nH]2)cc1,T/C,"dose: 3.12 mg/kg/injection, schedule: Q01DX005 (ip), vehicle: water",159 % of control
COc1cc(C(O)C2C(=O)OCC2C2(c3ccc4c(c3)OCO4)SCCCS2)cc(OC)c1OC (centres undefined),T/C,[3],107 % of control
same,T/C,[8],109 % of control
same,T/C,[6],115 % of control
same,T/C,"dose: 200.0 mg/kg/injection, schedule: Q01DX001 (ip), vehicle: saline with Tween-80",104 % of control
same,T/C,[7],108 % of control
Cc1cc(Cl)ccc1S(=O)(=O)Cl,T/C,[3],104 % of control
same,T/C,[6],103 % of control
Cc1ccc(S(=O)(=O)OC2CCC3(C)C(CCC4C3CCC3(C)C(C(C)CCCC(C)C)CCC43)C2)cc1 (centres undefined),T/C,"dose: 3.0 mg/kg/injection, schedule: Q01DX005 (ip), vehicle: Klucel (hydroxypropylcellulose) (HPC)",107 % of control
same,T/C,"dose: 6.0 mg/kg/injection, schedule: Q01DX005 (ip), vehicle: Klucel (hydroxypropylcellulose) (HPC)",117 % of control
same,T/C,"dose: 12.5 mg/kg/injection, schedule: Q01DX005 (ip), vehicle: Klucel (hydroxypropylcellulose) (HPC)",100 % of control
O=C(O)CNCCCCCCNCC(=O)O,T/C,"dose: 50.0 mg/kg/injection, schedule: Q01DX005 (ip), vehicle: saline",98 % of control
same,T/C,"dose: 100.0 mg/kg/injection, schedule: Q01DX005 (ip), vehicle: saline",103 % of control
same,T/C,"dose: 200.0 mg/kg/injection, schedule: Q01DX005 (ip), vehicle: saline",106 % of control
O=C(Nc1ccc(Nc2ccccc2)cc1)Nc1cc([N+](=O)[O-])ccc1Cl,T/C,[9],90 % of control
same,T/C,[10],98 % of control
same,T/C,[11],103 % of control
CC#CCOCC(O)CCl (centres undefined),T/C,"dose: 66.0 mg/kg/injection, schedule: Q04DX003 (ip), vehicle: saline",110 % of control
same,T/C,[12],100 % of control
same,T/C,"dose: 150.0 mg/kg/injection, schedule: Q04DX003 (ip), vehicle: saline",120 % of control
CC(C)[CH2][Pb]([CH2]C(C)C)([CH2]C(C)C)[n]1ccnc1,T/C,"dose: 3.12 mg/kg/injection, schedule: Q01DX009 (ip), vehicle: saline",101 % of control
same,T/C,"dose: 6.25 mg/kg/injection, schedule: Q01DX009 (ip), vehicle: saline",108 % of control
same,T/C,"dose: 12.5 mg/kg/injection, schedule: Q01DX009 (ip), vehicle: saline",111 % of control
ClC1=CC(Cl)=C2N=C(N3CCCC3)N=C3N=C(N4CCCC4)N=C1N32,T/C,"dose: 50.0 mg/kg/injection, schedule: Q01DX005 (ip), vehicle: Klucel + Tween-80",93 % of control
same,T/C,"dose: 100.0 mg/kg/injection, schedule: Q01DX005 (ip), vehicle: Klucel + Tween-80",93 % of control
same,T/C,"dose: 200.0 mg/kg/injection, schedule: Q01DX005 (ip), vehicle: Klucel + Tween-80",90 % of control
O=C1C2CCC(C2)C1CN1CCCCC1 (centres undefined),T/C,"dose: 6.25 mg/kg/injection, schedule: Q01DX005 (ip), vehicle: saline with Tween-80",101 % of control
same,T/C,"dose: 12.5 mg/kg/injection, schedule: Q01DX005 (ip), vehicle: saline with Tween-80",98 % of control
same,T/C,"dose: 25.0 mg/kg/injection, schedule: Q01DX005 (ip), vehicle: saline with Tween-80",103 % of control
CN1C(=O)C(O)(c2c3c(c(C4(O)C(=O)N(C)c5ccccc54)c4c2OCO4)OCO3)c2ccccc21 (centres undefined),T/C,[9],89 % of control
same,T/C,[10],91 % of control
same,T/C,[11],91 % of control
CN(C)CCN(C)CCN1C(=O)c2ccccc2C1=O,T/C,"dose: 100.0 mg/kg/injection, schedule: Q04DX002 (ip), vehicle: saline",102 % of control
same,T/C,"dose: 200.0 mg/kg/injection, schedule: Q04DX002 (ip), vehicle: saline",100 % of control
same,T/C,"dose: 400.0 mg/kg/injection, schedule: Q04DX002 (ip), vehicle: saline",100 % of control
COc1cccc2sc(-c3ccccc3)cc(=O)c12,T/C,[13],93 % of control
same,T/C,[14],93 % of control
same,T/C,[15],96 % of control
COc1ccccc1C1OC(c2ccccc2OC)C2CCN(C)C2(C)O1 (centres undefined),T/C,[4],92 % of control
same,T/C,"dose: 200.0 mg/kg/injection, schedule: Q04DX002 (ip), vehicle: saline with Tween-80",91 % of control
same,T/C,"dose: 400.0 mg/kg/injection, schedule: Q04DX002 (ip), vehicle: saline with Tween-80",101 % of control
C[N+](C)(C)CN1C(=O)c2ccccc2C1=O,T/C,"dose: 50.0 mg/kg/injection, schedule: Q04DX003 (ip), vehicle: saline",100 % of control
same,T/C,[12],104 % of control
same,T/C,"dose: 200.0 mg/kg/injection, schedule: Q04DX003 (ip), vehicle: saline",95 % of control
COC(=O)C1=C(C(=O)OC)P2(C)(C)N(C)C(=S)N2C1(c1ccccc1)c1ccccc1,T/C,[13],102 % of control
same,T/C,[14],94 % of control
same,T/C,[15],94 % of control
NC1CC2(CCC1=O)c1ccccc1-c1ccccc12 (centres undefined),T/C,[8],105 % of control
same,T/C,"dose: 400.0 mg/kg/injection, schedule: Q01DX001 (ip), vehicle: saline with Tween-80",102 % of control
